Source: PubChem BioAssay AID2060612 (Molecular Pharmacology Branch, DTP, NCI, 2025)

System: 565232-114-T-J1-PDC complex spheroid viability
Assay: Anticancer human tumor 565232-114-T-J1-PDC patient-derived bladder carcinoma cell line growth inhibition [CLK]
Conditions: for IC50: curve of first compound; for viability, T/C: stronger effect = lower value
In short: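 Patient-derived tumor cells grown as complex spheroids with HUVEC endothelial cells and mesenchymal stem cells, treated with drug combinations. Concentrations descend in half-log steps from near clinical Cmax, or from 10 microM if Cmax unknown.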

[1] = second compound 0.0316 µM, first compound 0.0316 µM
[2] = second compound 0.0316 µM, first compound 0.1 µM
[3] = second compound 0.0316 µM, first compound 0.316 µM
[4] = second compound 0.0316 µM, first compound 1 µM
[5] = second compound 0.0316 µM, first compound 3.16 µM
[6] = second compound 0.0316 µM, first compound 10 µM
[7] = second compound 0.1 µM, first compound 0.0316 µM
[8] = second compound 0.1 µM, first compound 0.1 µM
[9] = second compound 0.1 µM, first compound 0.316 µM
[10] = second compound 0.1 µM, first compound 1 µM
[11] = second compound 0.1 µM, first compound 3.16 µM
[12] = second compound 0.1 µM, first compound 10 µM
[13] = second compound 0.316 µM, first compound 0.0316 µM
[14] = second compound 0.316 µM, first compound 0.1 µM
[15] = second compound 0.316 µM, first compound 0.316 µM
[16] = second compound 0.316 µM, first compound 1 µM
[17] = second compound 0.316 µM, first compound 3.16 µM
[18] = second compound 0.316 µM, first compound 10 µM
[19] = second compound 1 µM, first compound 0.0316 µM
[20] = second compound 1 µM, first compound 0.1 µM
[21] = second compound 1 µM, first compound 0.316 µM
[22] = second compound 1 µM, first compound 1 µM
[23] = second compound 1 µM, first compound 3.16 µM
[24] = second compound 1 µM, first compound 10 µM
[25] = second compound 3.16 µM, first compound 0.0316 µM
[26] = second compound 3.16 µM, first compound 0.1 µM
[27] = second compound 3.16 µM, first compound 0.316 µM
[28] = second compound 3.16 µM, first compound 1 µM
[29] = second compound 3.16 µM, first compound 3.16 µM
[30] = second compound 3.16 µM, first compound 10 µM
[31] = second compound 10 µM, first compound 0.0316 µM
[32] = second compound 10 µM, first compound 0.1 µM
[33] = second compound 10 µM, first compound 0.316 µM
[34] = second compound 10 µM, first compound 1 µM
[35] = second compound 10 µM, first compound 3.16 µM
[36] = second compound 10 µM, first compound 10 µM
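Further: spheroids exposed to compounds for 7 days before readout.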
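Wherever viability, T/C is given: 100% = DMSO vehicle wells with luminescence normalized to vehicle control.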

## CC(C)CC(NC(=O)C(Cc1ccccc1)NC(=O)c1cnccn1)B(O)O (stereo unspecified) + CNC(=O)c1ccc(Nc2nc(OC3CCCC3)c3c(-c4ccc5nc(C)oc5c4)c[nH]c3n2)c(OC)c1
Second compound 0.0316 µM
  IC50: 4.66 nM
Second compound 0.1 µM
  IC50: 1.01 nM
Second compound 0.316 µM
  IC50: < 0.949 nM
Second compound 1 µM
  IC50: < 0.949 nM
Second compound 3.16 µM
  IC50: < 0.949 nM
Second compound 10 µM
  IC50: < 0.949 nM
Second compound 0.0316 µM, first compound 0.000949 µM
  viability, T/C: 81%
Second compound 0.0316 µM, first compound 0.003 µM
  viability, T/C: 80.1%
Second compound 0.0316 µM, first compound 0.00949 µM
  viability, T/C: 1.47%
Second compound 0.0316 µM, first compound 0.03 µM
  viability, T/C: 0.95%
Second compound 0.0316 µM, first compound 0.0949 µM
  viability, T/C: 0.67%
Second compound 0.0316 µM, first compound 0.3 µM
  viability, T/C: 1.42%
Second compound 0.1 µM, first compound 0.000949 µM
  viability, T/C: 50.7%
Second compound 0.1 µM, first compound 0.003 µM
  viability, T/C: 42.4%
Second compound 0.1 µM, first compound 0.00949 µM
  viability, T/C: 1.02%
Second compound 0.1 µM, first compound 0.03 µM
  viability, T/C: 0.74%
Second compound 0.1 µM, first compound 0.0949 µM
  viability, T/C: 0.79%
Second compound 0.1 µM, first compound 0.3 µM
  viability, T/C: 0.53%
Second compound 0.316 µM, first compound 0.000949 µM
  viability, T/C: 31.1%
Second compound 0.316 µM, first compound 0.003 µM
  viability, T/C: 24.6%
Second compound 0.316 µM, first compound 0.00949 µM
  viability, T/C: 0.97%
Second compound 0.316 µM, first compound 0.03 µM
  viability, T/C: 0.75%
Second compound 0.316 µM, first compound 0.0949 µM
  viability, T/C: 3.5%
Second compound 0.316 µM, first compound 0.3 µM
  viability, T/C: 0.65%
Second compound 1 µM, first compound 0.000949 µM
  viability, T/C: 22.1%
Second compound 1 µM, first compound 0.003 µM
  viability, T/C: 23.1%
Second compound 1 µM, first compound 0.00949 µM
  viability, T/C: 0.93%
Second compound 1 µM, first compound 0.03 µM
  viability, T/C: 0.66%
Second compound 1 µM, first compound 0.0949 µM
  viability, T/C: 0.67%
Second compound 1 µM, first compound 0.3 µM
  viability, T/C: 1.42%
Second compound 3.16 µM, first compound 0.000949 µM
  viability, T/C: 19.6%
Second compound 3.16 µM, first compound 0.003 µM
  viability, T/C: 12.3%
Second compound 3.16 µM, first compound 0.00949 µM
  viability, T/C: 0.72%
Second compound 3.16 µM, first compound 0.03 µM
  viability, T/C: 1.66%
Second compound 3.16 µM, first compound 0.0949 µM
  viability, T/C: 0.65%
Second compound 3.16 µM, first compound 0.3 µM
  viability, T/C: 1.37%
Second compound 10 µM, first compound 0.000949 µM
  viability, T/C: 19.5%
Second compound 10 µM, first compound 0.003 µM
  viability, T/C: 10.6%
Second compound 10 µM, first compound 0.00949 µM
  viability, T/C: 1.82%
Second compound 10 µM, first compound 0.03 µM
  viability, T/C: 0.61%
Second compound 10 µM, first compound 0.0949 µM
  viability, T/C: 0.51%
Second compound 10 µM, first compound 0.3 µM
  viability, T/C: 1.99%

## CC1(C)CCC(CN2CCN(c3ccc(C(=O)NS(=O)(=O)c4ccc(NCC5CCOCC5)c([N+](=O)[O-])c4)c(Oc4cnc5[nH]ccc5c4)c3)CC2)=C(c2ccc(Cl)cc2)C1 + CNC(=O)c1ccc(Nc2nc(OC3CCCC3)c3c(-c4ccc5nc(C)oc5c4)c[nH]c3n2)c(OC)c1
Second compound 0.0316 µM
  IC50: 8790 nM
Second compound 0.1 µM
  IC50: 2340 nM
Second compound 0.316 µM
  IC50: < 31.6 nM
Second compound 1 µM
  IC50: < 31.6 nM
Second compound 3.16 µM
  IC50: < 31.6 nM
Second compound 10 µM
  IC50: < 31.6 nM
[1]
  viability, T/C: 82.7%
[2]
  viability, T/C: 93.9%
[3]
  viability, T/C: 95.7%
[4]
  viability, T/C: 95.2%
[5]
  viability, T/C: 92.7%
[6]
  viability, T/C: 44.7%
[7]
  viability, T/C: 60.2%
[8]
  viability, T/C: 55.1%
[9]
  viability, T/C: 52.6%
[10]
  viability, T/C: 53.6%
[11]
  viability, T/C: 49.4%
[12]
  viability, T/C: 30.5%
[13]
  viability, T/C: 37.3%
[14]
  viability, T/C: 38.1%
[15]
  viability, T/C: 39.3%
[16]
  viability, T/C: 33.5%
[17]
  viability, T/C: 32.7%
[18]
  viability, T/C: 23.7%
[19]
  viability, T/C: 21.2%
[20]
  viability, T/C: 23.3%
[21]
  viability, T/C: 25.4%
[22]
  viability, T/C: 26.6%
[23]
  viability, T/C: 28.7%
[24]
  viability, T/C: 20.6%
[25]
  viability, T/C: 22%
[26]
  viability, T/C: 20.8%
[27]
  viability, T/C: 23.6%
[28]
  viability, T/C: 20.8%
[29]
  viability, T/C: 20.8%
[30]
  viability, T/C: 17.1%
[31]
  viability, T/C: 21.5%
[32]
  viability, T/C: 19.9%
[33]
  viability, T/C: 18.5%
[34]
  viability, T/C: 21.1%
[35]
  viability, T/C: 20.1%
[36]
  viability, T/C: 16.5%

## CC1COCCN1c1cc(C2(S(C)(=N)=O)CC2)nc(-c2ccnc3[nH]ccc23)n1 (stereo unspecified) + CNC(=O)c1ccc(Nc2nc(OC3CCCC3)c3c(-c4ccc5nc(C)oc5c4)c[nH]c3n2)c(OC)c1
Second compound 0.0316 µM
  IC50: 6350 nM
Second compound 0.1 µM
  IC50: 222 nM
Second compound 0.316 µM
  IC50: < 31.6 nM
Second compound 1 µM
  IC50: < 31.6 nM
Second compound 3.16 µM
  IC50: < 31.6 nM
Second compound 10 µM
  IC50: < 31.6 nM
[1]
  viability, T/C: 95.2%
[2]
  viability, T/C: 85.1%
[3]
  viability, T/C: 93.2%
[4]
  viability, T/C: 79.4%
[5]
  viability, T/C: 103%
[6]
  viability, T/C: 23.2%
[7]
  viability, T/C: 55.6%
[8]
  viability, T/C: 57%
[9]
  viability, T/C: 42%
[10]
  viability, T/C: 44.2%
[11]
  viability, T/C: 30.2%
[12]
  viability, T/C: 11.5%
[13]
  viability, T/C: 31.4%
[14]
  viability, T/C: 38.3%
[15]
  viability, T/C: 35.7%
[16]
  viability, T/C: 28.6%
[17]
  viability, T/C: 22%
[18]
  viability, T/C: 9.67%
[19]
  viability, T/C: 24.7%
[20]
  viability, T/C: 25.2%
[21]
  viability, T/C: 25.9%
[22]
  viability, T/C: 23.8%
[23]
  viability, T/C: 11.1%
[24]
  viability, T/C: 4.92%
[25]
  viability, T/C: 19.1%
[26]
  viability, T/C: 17.4%
[27]
  viability, T/C: 17.4%
[28]
  viability, T/C: 13.3%
[29]
  viability, T/C: 11.2%
[30]
  viability, T/C: 2.86%
[31]
  viability, T/C: 19%
[32]
  viability, T/C: 21.1%
[33]
  viability, T/C: 20.5%
[34]
  viability, T/C: 15.5%
[35]
  viability, T/C: 6.6%
[36]
  viability, T/C: 1.53%
